Our source for the IC50 values is US20260125359A1, “HETEROARYL COMPOUNDS AS MULTI-TARGET PROTEIN KINASE INHIBITORS” (FUJIAN HAIXI PHARMACEUTICALS CO., LTD., priority 2023, published 2026).

The test system of this experiment is M-NFS-60 cells. The experiment can be described thus: M-NFS-60 cell in vitro assay (CCK, 48 h, M-CSF factor medium). It is filed as cell-based. Conditions: M-NFS-60 cells; read-out: M-NFS-60cellassay IC50. In outline: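 IC50 values were fitted from CCK absorbance (450 nm, 2 h development) after 48 h compound treatment. Cells: M-NFS-60, seeded 2000/well and rested 4 h, grown in medium carrying 25 ng/ml M-CSF factor plus 10% serum; compounds serially diluted in DMSO.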
As to `Cn1cc(-c2cnc(N)c(O[C@H]3CCc4c(C(=O)Nc5cccc(C6CC6)c5)cccc43)c2)cn1` [Compound 4, (S)-1-((2-amino-5-(1-methyl-1H-pyrazol-4-yl)pyridin-3-yl)oxy)-N-(3-cyclopropylphenyl)-2,3-dihydro-1H-indene-4-carboxamide], the IC50 – broadly, the concentration that inhibits the measured activity by half – is less than 50 nM. Take `Cc1cccc(NC(=O)c2cccc3c2CC[C@@H]3Nc2cncc(-c3cnn(C)c3)c2)c1` [Compound 13, (S)-1-((5-(1-methyl-1H-pyrazol-4-yl)pyridin-3-yl)amino)-N-(m-tolyl)-2,3-dihydro-1H-indene-4-carboxamide]: the IC50 is less than 50 nM. Consider `Cn1cc(-c2cncc(N[C@H]3CCc4c(C(=O)Nc5cncc(Cl)c5)cccc43)c2)cn1` [Compound 14aa, (S)—N-(5-chloropyridin-3-yl)-1-((5-(1-methyl-1H-pyrazol-4-yl)pyridin-3-yl)amino)-2,3-dihydro-1H-indene-4-carboxamide], for which the IC50 was less than 50 nM. Under `Cn1cc(-c2cncc(N[C@H]3CCc4c(C(=O)Nc5ccc(C(F)(F)F)nc5)cccc43)c2)cn1` [Compound 14ah] stands less than 50 nM; under `CN1CCc2ccc(NC(=O)c3cccc4c3CC[C@@H]4Nc3cncc(-c4cnn(C)c4)c3)cc2C1` [Compound 14ap], less than 50 nM; under `Cc1cncc(NC(=O)c2cccc3c2CC[C@@H]3Nc2cncc(-c3cnn(C)c3)c2)c1` [Compound 14as], less than 50 nM. The value for `CN1CCc2nc(NC(=O)c3cccc4c3CC[C@@H]4Nc3cncc(-c4cnn(C)c4)c3)sc2C1` [Compound 14ba] was less than 50 nM; that for `Cc1cccc(C(=O)Nc2cccc3c2CC[C@@H]3Oc2cncc(-c3cnn(C)c3)c2)c1` [Compound 15, (S)-3-methyl-N-(1-((5-(1-methyl-1H-pyrazol-4-yl)pyridin-3-yl)oxy)-2,3-dihydro-1H-inden-4-yl)benzamide] was 200 to 500 nM; that for `Cn1cc(-c2cncc(O[C@H]3CCc4c(C(=O)Nc5cncc(Cl)c5)cccc43)c2)cn1` [Compound 19a, (S)—N-(5-chloropyridin-3-yl)-1-((5-(1-methyl-1H-pyrazol-4-yl)pyridin-3-yl)oxy)-2,3-dihydro-1H-indene-4-carboxamide] was less than 50 nM.

For the compound `Cn1cc(-c2cncc(O[C@H]3CCc4c(C(=O)Nc5cccc(C6CC6)c5)cccc43)c2)cn1` [Compound 19b], the IC50 was less than 50 nM. The value for `CN1CCc2nc(NC(=O)c3cccc4c3CC[C@@H]4Oc3cncc(-c4cnn(C)c4)c3)sc2C1` [Compound 19f] was 50 to 200 nM; that for `CN(C)Cc1cncc(NC(=O)c2cccc3c2CC[C@@H]3Oc2cncc(-c3cnn(C)c3)c2)c1` [Compound 19h] was greater than 500 nM. With `Cc1cncc(NC(=O)c2cccc3c2CC[C@@H]3Oc2cncc(-c3cnn(C)c3)c2)c1` [Compound 19j], the IC50 was less than 50 nM.

As for `Cc1cc(NC(=O)c2cccc3c2CC[C@@H]3Oc2cncc(-c3cnn(C)c3)c2)cc(C)n1` [Compound 19k, (S)—N-(2,6-dimethylpyridin-4-yl)-1-((5-(1-methyl-1H-pyrazol-4-yl)pyridin-3-yl)oxy)-2,3-dihydro-1H-indene-4-carboxamide], the IC50 was less than 50 nM. Under `CN(c1cncc(-c2cnn(C)c2)c1)[C@H]1CCc2c(C(=O)Nc3cncc(Cl)c3)cccc21` [Compound 21, (S)—N-(5-chloropyridin-3-yl)-1-(methyl (5-(1-methyl-1H-pyrazol-4-yl)pyridin-3-yl)amino)-2,3-dihydro-1H-indene-4-carboxamide] stands 50 to 200 nM; under `CN(c1cncc(-c2cnn(C)c2)c1)[C@H]1CCc2c(C(=O)Nc3cccc(C4CC4)c3)cccc21` [Compound 22a, (S)—N-(3-cyclopropylphenyl)-1-(methyl (5-(1-methyl-1H-pyrazol-4-yl)pyridin-3-yl)amino)-2,3-dihydro-1H-indene-4-carboxamide], less than 50 nM. Under `Cn1cc(-c2cncc(N[C@H]3CCc4c(C(=O)Nc5nn(C)c6ccccc56)cccc43)n2)cn1` [Compound 27g, (S)—N-(1-methyl-1H-indazol-3-yl)-1-((6-(1-methyl-1H-pyrazol-4-yl)pyrazin-2-yl)amino)-2,3-dihydro-1H-indene-4-carboxamide] stands less than 50 nM; under `Cn1cc(-c2cncc(N[C@H]3CCc4c(Nc5cc(C(C)(C)C)on5)cccc43)c2)cn1` [Compound 41, (S)—N^4-(5-(tert-butyl)isoxazol-3-yl)-N^1-(5-(1-methyl-1H-pyrazol-4-yl)pyridin-3-yl)-2,3-dihydro-1H-indene-1,4-diamine], less than 50 nM; under `Cn1cc(-c2cncc(N[C@H]3CCc4c(Nc5noc(C(C)(C)C)n5)cccc43)c2)cn1` [Compound 42o], 50 to 200 nM.

As for `Cn1ncc2ncc(N[C@H]3CCc4c(C(=O)Nc5cccc(C6CC6)c5)cccc43)cc21` [Compound 73, (S)—N-(3-cyclopropylphenyl)-1-((1-methyl-1H-pyrazolo[4,3-b]pyridin-6-yl)amino)-2,3-dihydro-1H-indene-4-carboxamide], the IC50 was less than 50 nM. For `Cn1cc2ncc(N[C@H]3CCc4c(C(=O)Nc5nc(C6CC6)cs5)cccc43)cc2n1` [Compound 74h, (S)—N-(4-cyclopropylthiazol-2-yl)-1-((2-methyl-2H-pyrazolo[4,3-b]pyridin-6-yl)amino)-2,3-dihydro-1H-indene-4-carboxamide], the IC50 is less than 50 nM. Take `Cn1ncc2ncc(O[C@H]3CCc4c(C(=O)Nc5cncc(Cl)c5)cccc43)cc21` [Compound 76ac, (S)—N-(5-chloropyridin-3-yl)-1-((1-methyl-1H-pyrazolo[4,3-b]pyridin-6-yl)oxy)-2,3-dihydro-1H-indene-4-carboxamide]: the IC50 is less than 50 nM. `Cn1cc2ncc(O[C@H]3CCc4c(C(=O)Nc5cncc(Cl)c5)cccc43)cc2n1` [Compound 76ai]: the 50% inhibitory concentration (IC50) is less than 50 nM. Under `Cn1cc2ncc(O[C@H]3CCc4c(C(=O)Nc5nn(C)c6ccccc56)cccc43)cc2n1` [Compound 76al] stands less than 50 nM; under `Cn1cc2ncc(O[C@H]3CCc4c(C(=O)Nc5nn(C)c6cccc(F)c56)cccc43)cc2n1` [Compound 76aw], less than 50 nM; under `Cc1cccc(NC(=O)c2cccc3c2CC[C@@H]3Oc2cnc3cn(C)nc3c2)n1` [Compound 76bd], less than 50 nM.

With `CN(c1cnc2cn(C)nc2c1)[C@H]1CCc2c(C(=O)Nc3cncc(Cl)c3)cccc21` [Compound 80k], the IC50 is less than 50 nM. Regarding `CN(c1cnc2cn(C)nc2c1)[C@H]1CCc2c(C(=O)Nc3nn(C)c4ccccc34)cccc21` [Compound 80l], the IC50 is less than 50 nM.

Consider `Cn1ncc2ncc(N[C@H]3CCc4c(Nc5cc(C(C)(C)C)on5)cccc43)nc21` [Compound 86, (S)—N^4-(5-(tert-butyl)isoxazol-3-yl)-N1-(1-methyl-1H-pyrazolo[3,4-b]pyrazin-6-yl)-2,3-dihydro-1H-indene-1,4-diamine], for which the IC50 is less than 50 nM.
